Assay [1] deals with HepG2. In words: The compound was tested for inhibition of cholesterol biosynthesis in human hepatoma G2 cell line. Type of assay: functional, cell-based.
For assay [2], the target named is T1, 3-hydroxy-3-methylglutaryl-coenzyme A reductase (Homo sapiens, UniProt P04035).
T1 sequence (P04035 whole entry): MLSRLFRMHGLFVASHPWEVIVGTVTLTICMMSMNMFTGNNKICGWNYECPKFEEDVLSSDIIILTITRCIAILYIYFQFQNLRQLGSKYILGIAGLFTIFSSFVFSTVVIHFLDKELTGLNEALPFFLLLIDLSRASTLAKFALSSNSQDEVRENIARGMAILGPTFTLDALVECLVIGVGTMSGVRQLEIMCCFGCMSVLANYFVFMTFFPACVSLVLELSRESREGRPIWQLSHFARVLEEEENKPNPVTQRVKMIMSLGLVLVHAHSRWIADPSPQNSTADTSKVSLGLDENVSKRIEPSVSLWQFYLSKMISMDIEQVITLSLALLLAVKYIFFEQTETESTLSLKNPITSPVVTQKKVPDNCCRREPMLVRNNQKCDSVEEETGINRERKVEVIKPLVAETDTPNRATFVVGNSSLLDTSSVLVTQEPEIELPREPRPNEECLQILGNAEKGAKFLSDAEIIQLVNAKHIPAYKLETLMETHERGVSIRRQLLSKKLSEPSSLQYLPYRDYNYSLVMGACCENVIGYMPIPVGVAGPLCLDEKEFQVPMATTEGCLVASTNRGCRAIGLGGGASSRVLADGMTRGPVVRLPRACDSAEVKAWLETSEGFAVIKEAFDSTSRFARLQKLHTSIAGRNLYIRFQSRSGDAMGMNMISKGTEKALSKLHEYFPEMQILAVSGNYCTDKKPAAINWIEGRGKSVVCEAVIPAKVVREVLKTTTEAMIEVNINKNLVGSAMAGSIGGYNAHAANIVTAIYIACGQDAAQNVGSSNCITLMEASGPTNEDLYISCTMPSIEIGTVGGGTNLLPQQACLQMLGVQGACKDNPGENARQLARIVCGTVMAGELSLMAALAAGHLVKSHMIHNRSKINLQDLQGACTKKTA
Put plainly: The inhibitory activity against purified recombinant human HMG-CoA reductase was evaluated.

Assay [3] deals with HepG2. Put plainly: The compound was tested for inhibition of cholesterol biosynthesis in human hepatoma G2 cell line; showed relatively low potency. Type of assay: functional, cell-based.

The source of these data is ChEMBL document CHEMBL1125979, “Phosphinic acid inhibitors of 3-hydroxy-3-methylglutaryl-coenzyme a reductase” (Bioorg Med Chem Lett, 1991).

Compound `COC(=O)CC(O)CP(=O)(O)CCc1c(Cl)cc(Cl)cc1OCc1ccccc1` (stereo not given) registered a half-maximal inhibitory concentration (IC50) in the assay on HepG2 [1] of 100 nM.
For the compound `O=C(O)C[C@H](O)C[C@H](O)CCc1c(Cl)cc(Cl)cc1OCc1ccccc1`, the Ki in assay [2] came out at 3 nM.
For the compound `O=C(O)C[C@H](O)CP(=O)(O)CCc1c(Cl)cc(Cl)cc1OCc1ccccc1`, in assay [2], the inhibition constant (Ki) turned out to be 16 nM. Moreover, in the assay on HepG2 [3], the 50% inhibitory concentration (IC50) was more than 1000 nM.
Regarding `CC(C)(C)C(=O)OCOC(=O)CC(O)CP(=O)(CCc1c(Cl)cc(Cl)cc1OCc1ccccc1)OCOC(=O)C(C)(C)C` (stereo not given), the 50% inhibitory concentration (IC50) with HepG2 [1] stood at 100 nM.
